The values below are quoted from earlier work in patent publication US20090306944A1, “DEVICE AND METHOD FOR CALCULATING AND SUPPLYING A DRUG DOSE” (BAYER TECHNOLOGY SERVICES GMBH, priority 2006, published 2009).

Read-outs that look alike come from different tables or passages of the source.

The target in data set [1] is T1, CYP1A2 (Homo sapiens, UniProt P05177).
T1 sequence (P05177 1-516): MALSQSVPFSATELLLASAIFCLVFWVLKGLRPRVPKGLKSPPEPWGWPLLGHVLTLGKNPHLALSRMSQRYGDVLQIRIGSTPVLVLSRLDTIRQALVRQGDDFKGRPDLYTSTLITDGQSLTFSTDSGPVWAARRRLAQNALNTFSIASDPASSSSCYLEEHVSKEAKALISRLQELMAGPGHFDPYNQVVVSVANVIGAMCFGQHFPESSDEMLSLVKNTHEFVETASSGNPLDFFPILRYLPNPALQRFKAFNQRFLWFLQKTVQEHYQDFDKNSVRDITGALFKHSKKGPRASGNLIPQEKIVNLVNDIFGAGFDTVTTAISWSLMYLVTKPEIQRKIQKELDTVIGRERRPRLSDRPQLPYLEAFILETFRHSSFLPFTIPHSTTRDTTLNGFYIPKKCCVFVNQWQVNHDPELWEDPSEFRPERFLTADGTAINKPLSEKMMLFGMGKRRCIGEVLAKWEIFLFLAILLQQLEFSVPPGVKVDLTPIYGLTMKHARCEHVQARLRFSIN
The conditions noted are these: proportion of overall clearance, reference value in an adult.

The target of data set [2] is CYP2E1 (Homo sapiens, UniProt P05181). Particulars: proportion of overall clearance, reference value in an adult.
The conditions of data set [3]: for main binding protein in the plasma: adult.
For data set [4] the following is noted: intravenously administered.
The target in data set [5] is UGT1A1 (Homo sapiens, UniProt P22309). The conditions noted are these: proportion of overall clearance, reference value in an adult.
The conditions of data set [6]: proportion of overall clearance, reference value in an adult.
Data set [7] addresses T2, UGT2B7 (Homo sapiens, UniProt P16662).
T2 sequence (P16662 24-529): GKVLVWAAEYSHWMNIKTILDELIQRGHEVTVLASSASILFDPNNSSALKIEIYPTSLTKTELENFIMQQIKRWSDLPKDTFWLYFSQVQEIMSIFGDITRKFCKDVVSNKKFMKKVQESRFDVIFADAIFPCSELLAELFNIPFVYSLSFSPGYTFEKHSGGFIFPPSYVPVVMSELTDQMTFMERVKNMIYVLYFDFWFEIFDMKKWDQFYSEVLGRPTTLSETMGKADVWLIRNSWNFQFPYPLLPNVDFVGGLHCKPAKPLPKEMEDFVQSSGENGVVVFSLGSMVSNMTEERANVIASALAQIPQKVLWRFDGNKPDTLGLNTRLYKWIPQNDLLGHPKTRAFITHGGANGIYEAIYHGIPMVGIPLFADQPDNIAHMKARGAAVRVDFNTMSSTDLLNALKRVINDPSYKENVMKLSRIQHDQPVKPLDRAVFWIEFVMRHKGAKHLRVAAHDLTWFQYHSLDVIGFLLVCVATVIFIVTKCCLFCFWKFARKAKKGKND
The conditions noted are these: proportion of overall clearance, reference value in an adult.

Data set [8] has as its system CYP3A. Particulars: in vivo.
The target of data set [9] is T3, CYP3A4 (Homo sapiens, UniProt P08684).
T3 construct: the metabolizing enzymes in the liver; host or cells: liver enzymes of the adult, in vivo clearance
The conditions noted are these: proportion of overall clearance, reference value in an adult.

The conditions of data set [10]: Measured.
[11] abbreviates: proportion of overall clearance, reference value in an adult.
Setting [12] is: with co-medication with cyclosporin.

CYP2E1, sequence (P05181 whole entry): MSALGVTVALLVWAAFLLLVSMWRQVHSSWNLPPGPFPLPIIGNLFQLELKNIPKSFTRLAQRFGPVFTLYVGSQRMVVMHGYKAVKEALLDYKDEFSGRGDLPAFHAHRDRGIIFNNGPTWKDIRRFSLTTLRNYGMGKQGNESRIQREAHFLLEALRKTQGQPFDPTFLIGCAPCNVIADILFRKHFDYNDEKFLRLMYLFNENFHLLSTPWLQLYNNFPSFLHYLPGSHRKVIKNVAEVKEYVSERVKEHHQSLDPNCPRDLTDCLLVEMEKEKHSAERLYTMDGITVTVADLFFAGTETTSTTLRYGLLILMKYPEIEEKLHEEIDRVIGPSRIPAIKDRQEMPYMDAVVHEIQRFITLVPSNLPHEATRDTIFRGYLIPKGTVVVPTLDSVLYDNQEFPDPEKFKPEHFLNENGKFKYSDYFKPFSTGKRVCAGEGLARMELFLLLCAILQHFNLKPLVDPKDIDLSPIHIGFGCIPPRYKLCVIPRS
UGT1A1, sequence (P22309 26-533): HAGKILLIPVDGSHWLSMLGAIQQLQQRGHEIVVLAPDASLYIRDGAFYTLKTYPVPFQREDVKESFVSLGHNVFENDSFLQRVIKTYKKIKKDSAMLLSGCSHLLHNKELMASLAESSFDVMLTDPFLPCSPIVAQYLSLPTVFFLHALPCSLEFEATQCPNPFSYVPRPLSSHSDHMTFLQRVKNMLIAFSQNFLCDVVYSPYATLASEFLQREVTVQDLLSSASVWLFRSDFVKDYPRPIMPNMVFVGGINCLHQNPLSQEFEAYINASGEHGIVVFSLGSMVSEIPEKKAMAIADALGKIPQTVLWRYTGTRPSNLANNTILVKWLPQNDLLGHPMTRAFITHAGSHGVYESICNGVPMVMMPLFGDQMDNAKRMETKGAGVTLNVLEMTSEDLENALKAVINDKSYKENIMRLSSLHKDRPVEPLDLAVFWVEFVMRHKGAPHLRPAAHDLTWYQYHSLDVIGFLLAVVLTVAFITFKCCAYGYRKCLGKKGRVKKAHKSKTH
T3 sequence (P08684 whole entry): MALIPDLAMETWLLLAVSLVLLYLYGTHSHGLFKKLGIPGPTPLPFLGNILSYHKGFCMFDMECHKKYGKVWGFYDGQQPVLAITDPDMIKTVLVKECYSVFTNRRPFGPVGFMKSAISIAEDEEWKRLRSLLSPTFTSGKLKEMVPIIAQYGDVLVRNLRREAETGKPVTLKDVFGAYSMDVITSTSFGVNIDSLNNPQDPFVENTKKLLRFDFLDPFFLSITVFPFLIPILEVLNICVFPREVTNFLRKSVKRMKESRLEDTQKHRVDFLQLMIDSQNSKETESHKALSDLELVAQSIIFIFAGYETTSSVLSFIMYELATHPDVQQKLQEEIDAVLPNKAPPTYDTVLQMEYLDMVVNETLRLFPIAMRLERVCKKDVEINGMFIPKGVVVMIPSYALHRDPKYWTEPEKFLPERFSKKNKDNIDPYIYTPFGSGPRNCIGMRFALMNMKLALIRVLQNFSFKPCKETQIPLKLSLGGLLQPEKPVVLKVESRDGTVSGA

As to `Cn1c(=O)c2c(ncn2C)n(C)c1=O` [Caffeine], in data set [1], the “Excretion process: CYP1A2” value is given as “CYP1A2 (85%),”. Besides, in data set [2], the “Excretion process: CYP2E1” value is listed as “CPY2E1 (13%),”. For the same compound, in data set [3] (reference value in an adult), the “Free fraction in the plasma” value is listed as 70% (albumin).

`O=C(O)c1cn(C2CC2)c2cc(N3CCNCC3)c(F)cc2c1=O` [Ciprofloxacin]: the “fraction renally excreted without being changed” value in data set [4] was “Approximately ⅔”.

As for `CN[C@@H]1[C@@H](O)[C@@H](O[C@@H]2[C@@H](O)[C@H](O[C@H]3O[C@H](CN)[C@@H](O)[C@H](O)[C@H]3O)[C@@H](N)C[C@H]2NC(=O)[C@@H](O)CN)OC[C@]1(C)O` [Isepamicin], the “Excretion process: Renal” value under setting [11] is reported as “Renal (100%)”. The “Free fraction in the plasma” value in data set [3] (reference value in an adult) is 95%.

For the compound `C[C@H]1COc2c(N3CCN(C)CC3)c(F)cc3c(=O)c(C(=O)O)cn1c23` [Levofloxacin], the “Excretion process: UGT1A1” value in [5] is “UGT1A1 (10%)”. Besides, the “Excretion process: Renal” value (in vivo) was “Renal (80%)”. The “Free fraction in the plasma” value in [3] (reference value in an adult) is recorded as 70% (Albumin). Moreover, in data set [6], the “Excretion process: Billiary” value is given as “Billiary (10%)”.

Turning to `O=C1Nc2ccc(Cl)cc2C(c2ccccc2Cl)=NC1O` (stereo not drawn) [Lorazepam], the “Excretion process: UGT2B7” value in data set [7] is “UGT2B7 (100%)”. Besides, the “Free fraction in the plasma” value in data set [3] (plasma) is given as 8% (Albumin).

Regarding `Cc1ncc2n1-c1ccc(Cl)cc1C(c1ccccc1F)=NC2` [Midazolam], in data set [8], the “Excretion process: CYP3A” value is on record as “CYP3A (100%)”. Further, the “Free fraction in the plasma” value in data set [3] (plasma) is 2% (Albumin).

Regarding `CC(=O)Nc1ccc(O)cc1` [Paracetamol], the “main binding protein in the plasma” value in data set [3] was “Albumin”. The “Free fraction in the plasma” value in data set [3] (reference value in an adult) was 95%.

Take `CCCN1CCCC[C@H]1C(=O)Nc1c(C)cccc1C` [Ropivacaine]: the “Excretion process: CYP1A2” value in data set [1] was “CYP1A2 (90%),”. Further, the “Excretion process: CYP3A4” value in data set [9] is listed as “CYP3A4 (9%),”. The “Excretion process: Renal” value under setting [11] is on record as “Renal (1%)”. In data set [3], the “main binding protein in the plasma” value is “α1-Glycoprotein”. For the same compound, the “Free fraction in the plasma” value in data set [3] (reference value in an adult) is 5%.

On to `Cn1c(=O)c2[nH]cnc2n(C)c1=O` [Theophylline], for which, in [1], the “Excretion process: CYP1A2” value is “CYP1A2 (60%),”. In addition, the “Excretion process: CYP2E1” value in [2] is “CYP2E1 (25%),”. For the same compound, under setting [11], the “Excretion process: Renal” value is reported as “Renal (15%)”.

The AUC is the area under the concentration-time curve, a measure of exposure. As a reminder, the Cmax is the highest concentration seen after dosing. Turning to `CC(=O)O[C@H]1C(=O)[C@@]2(C)[C@H]([C@H](OC(=O)c3ccccc3)[C@]3(O)C[C@H](OC(=O)[C@H](O)[C@@H](NC(=O)c4ccccc4)c4ccccc4)C(C)=C1C3(C)C)[C@]1(OC(C)=O)CO[C@@H]1C[C@@H]2O` [paclitaxel, Paclitaxel], in [10] (setting [12]), the exposure (AUC) was 1.7 ± 0.9 µM·h, the highest concentration (Cmax) was 200 ± 100 nM, the “T > 0.1 μM” value is given as 3.7 ± 2.3 h and the “T > 0.5 μM” value is on record as 7.4 ± 4.4 h. In [10] (without co-medication), the AUC is 0.2 ± 0.1 µM·h, the “T > 0.1 μM” value is reported as 0 h and the “T > 0.5 μM” value is listed as 1.2 ± 0.9 h. In [10] (without co-medication, rounded-up value), the peak concentration (Cmax) was 100 nM.

On to Gentamicin, for which, in [3] (plasma), the “Free fraction in the plasma” value was 95%.
